# Laboratory results as given in PubChem BioAssay (NCI).
#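 Protocol summary: plate cells (96-well), add compound at 5 concentrations, incubate 48 h, interpolate endpoints linearly. GI50: concentration for 50% inhibition of growth. TGI: concentration producing complete growth inhibition.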
# Test system: NCI-H226 lung
# Test: NCI tumour cell line growth inhibition, 48 h
SMILES,GI50 [nM],TGI [µM]
C=C(C)[C@@H]1CC[C@]2(C)[C@H](CC=C3[C@@H]4CC(C)(C)CC[C@]4(C(N)=O)CC[C@]32C)[C@@]1(C)CCC#N,2940,9.41
COc1cc(-c2cc(-c3cc4c([nH]c5ccccc54)c(-c4cc(OC)c(OC)c(OC)c4)n3)cc(-c3ccccc3)n2)cc(OC)c1OC,7560,> 100
O=C1C=CC(=O)c2cc3cc(CBr)ccc3cc21,27400,71.2
COc1cc(F)ccc1-c1ncnc(Nc2cccc(CS(C)(=N)=O)c2)n1 (stereo not given),497,> 100
Cc1c2c(C#N)nccc2c(C)c2c1c1ccccc1n2Cc1ccccc1,,> 100
CCOC(=O)Nc1ccc(-c2nc(-c3cccc(OCCN4CCOCC4)c3)c(-c3ccnc(Br)c3)[nH]2)cc1,3180,> 100
O=C(CC1(O)C(=O)N(Cc2ccccc2)c2ccc(F)cc21)c1ccc(C(=O)NCC2CCC3(CC2)OOC2(CCCCC2)OO3)cc1 (stereo not given),1100,4.19
O=C(CSc1nc2ccccc2nc1-c1ccccc1)Nc1ccc(F)cc1,> 100000,> 100
Cn1cc(-c2csc(-c3c[nH]c4ccc(F)cc34)n2)c2cnccc21,1880,4.03

# Test system: SF-295 CNS
# Test: NCI tumour cell line growth inhibition, 48 h
SMILES,GI50 [µM],TGI [µM]
CN(C)CC[PH+](c1ccccc1)c1ccccc1.CN(C)CC[PH+](c1ccccc1)c1ccccc1.[Cl-].[Pd+2],> 100,> 100
O=C(O)Cc1cc(Cl)ccc1O,,> 100
Cc1nn(-c2ccc(Cl)cc2)c2nc3c(nc12)C(=O)c1ccccc1-3,> 100,> 100
O=C(c1ccccc1)c1cc2ccccc2o1,71.7,> 100
C=C(C)[C@@H]1CC[C@]2(C)[C@H](CC=C3[C@@H]4CC(C)(C)CC[C@]4(C(N)=O)CC[C@]32C)[C@@]1(C)CCC#N,3.91,> 100
CCCC(=O)Nc1cc2c3c(c1)CCCN3CCC2,,> 10
O=C1C=CC(=O)c2cc3cc(CBr)ccc3cc21,25.9,> 73.9
Cc1c2c(C#N)nccc2c(C)c2c1c1ccccc1n2Cc1ccccc1,,> 100
O=C(CC1(O)C(=O)N(Cc2ccccc2)c2ccc(F)cc21)c1ccc(C(=O)NCC2CCC3(CC2)OOC2(CCCCC2)OO3)cc1 (stereo not given),0.654,1.69
O=C(CSc1nc2ccccc2nc1-c1ccccc1)Nc1ccc(F)cc1,40.6,> 100
Cn1cc(-c2csc(-c3c[nH]c4ccc(F)cc34)n2)c2cnccc21,1.74,3.25

# Test system: SK-MEL-28 melanoma
# Test: NCI tumour cell line growth inhibition, 48 h
SMILES,GI50 [µM],TGI [µM]
CN(C)CC[PH+](c1ccccc1)c1ccccc1.CN(C)CC[PH+](c1ccccc1)c1ccccc1.[Cl-].[Pd+2],> 100,> 100
O=C(O)Cc1cc(Cl)ccc1O,,> 100
Cc1nn(-c2ccc(Cl)cc2)c2nc3c(nc12)C(=O)c1ccccc1-3,> 100,> 100
O=C(c1ccccc1)c1cc2ccccc2o1,> 100,> 100
COc1ccc(C(=O)/C=C/c2cc(-c3cc(OC)c(OC)c(OC)c3)n[nH]2)cc1OC,1.78,3.34
C=C(C)[C@@H]1CC[C@]2(C)[C@H](CC=C3[C@@H]4CC(C)(C)CC[C@]4(C(N)=O)CC[C@]32C)[C@@]1(C)CCC#N,4.17,> 100
CCCC(=O)Nc1cc2c3c(c1)CCCN3CCC2,,> 10
COc1cc(-c2cc(-c3cc4c([nH]c5ccccc54)c(-c4cc(OC)c(OC)c(OC)c4)n3)cc(-c3ccccc3)n2)cc(OC)c1OC,4.3,30.2
O=C1C=CC(=O)c2cc3cc(CBr)ccc3cc21,7.31,> 63.1
COc1cc(F)ccc1-c1ncnc(Nc2cccc(CS(C)(=N)=O)c2)n1 (stereo not given),1.05,> 100
Cc1c2c(C#N)nccc2c(C)c2c1c1ccccc1n2Cc1ccccc1,,> 100
CCOC(=O)Nc1ccc(-c2nc(-c3cccc(OCCN4CCOCC4)c3)c(-c3ccnc(Br)c3)[nH]2)cc1,1.78,3.75
O=C(CC1(O)C(=O)N(Cc2ccccc2)c2ccc(F)cc21)c1ccc(C(=O)NCC2CCC3(CC2)OOC2(CCCCC2)OO3)cc1 (stereo not given),4.38,> 84.7
O=C(CSc1nc2ccccc2nc1-c1ccccc1)Nc1ccc(F)cc1,63.9,> 100
Cn1cc(-c2csc(-c3c[nH]c4ccc(F)cc34)n2)c2cnccc21,1.86,3.29

# Test system: SN12C renal
# Test: NCI tumour cell line growth inhibition, 48 h
SMILES,GI50 [nM],TGI [µM]
CN(C)CC[PH+](c1ccccc1)c1ccccc1.CN(C)CC[PH+](c1ccccc1)c1ccccc1.[Cl-].[Pd+2],> 100000,> 100
O=C(O)Cc1cc(Cl)ccc1O,,> 100
Cc1nn(-c2ccc(Cl)cc2)c2nc3c(nc12)C(=O)c1ccccc1-3,> 100000,> 100
O=C(c1ccccc1)c1cc2ccccc2o1,> 100000,> 100
COc1ccc(C(=O)/C=C/c2cc(-c3cc(OC)c(OC)c(OC)c3)n[nH]2)cc1OC,1540,3.13
C=C(C)[C@@H]1CC[C@]2(C)[C@H](CC=C3[C@@H]4CC(C)(C)CC[C@]4(C(N)=O)CC[C@]32C)[C@@]1(C)CCC#N,1840,3.7
CCCC(=O)Nc1cc2c3c(c1)CCCN3CCC2,,> 10
COc1cc(-c2cc(-c3cc4c([nH]c5ccccc54)c(-c4cc(OC)c(OC)c(OC)c4)n3)cc(-c3ccccc3)n2)cc(OC)c1OC,4080,> 100
O=C1C=CC(=O)c2cc3cc(CBr)ccc3cc21,741,2.91
COc1cc(F)ccc1-c1ncnc(Nc2cccc(CS(C)(=N)=O)c2)n1 (stereo not given),645,> 100
Cc1c2c(C#N)nccc2c(C)c2c1c1ccccc1n2Cc1ccccc1,,> 100
CCOC(=O)Nc1ccc(-c2nc(-c3cccc(OCCN4CCOCC4)c3)c(-c3ccnc(Br)c3)[nH]2)cc1,3770,> 100
O=C(CC1(O)C(=O)N(Cc2ccccc2)c2ccc(F)cc21)c1ccc(C(=O)NCC2CCC3(CC2)OOC2(CCCCC2)OO3)cc1 (stereo not given),1730,3.74
O=C(CSc1nc2ccccc2nc1-c1ccccc1)Nc1ccc(F)cc1,36500,> 100
Cn1cc(-c2csc(-c3c[nH]c4ccc(F)cc34)n2)c2cnccc21,1720,3.22
